Experimental data from ChEMBL document CHEMBL3430912, “GSK Tres Cantos Anti-Kinetoplastid Screening (TCAKS) Data”.

What was measured:
[1] = tested on: Trypanosoma brucei brucei; experiment: GSK_TCAKS: pIC50 Trypanosoma brucei viability assay using fluorescence intensity. Assay plates (1536-well) were prepared by dispensing 25nL of compound solution per well using an Echo acoustic dispenser (Labcyte).; type: functional, organism-based; details: Lister 427, 2 h
Trypanosoma cruzi [2] = experiment: GSK_TCAKS: pIC50 Trypanosoma cruzi viability assay using beta-GAL activity. This assay was run at single shot at 5uM compound concentration per well. The biological reagents consisted of NIH-3T3 host cells and trypomastigotes parasitic cells; both cell types were set to a 3.3 * 10^5 cells/mL dilution in assay DMEM by means of a CASY cell counter device using a 60um capillary. 6 uL of the mixture were dispensed per well (about 1 * 10^3 host-cells and 1 * 10^3 parasites) with a Multidrop Combi dispenser. […] In all wells, the percentage of DMSO never exceeded 0.5%. Plates incubated for four days at 37C, 5% CO2. The substrate used for the assay fluorescence intensity (FLINT) readout was resorufin-beta-D-galactopiranoside (Sigma-Aldrich) at 5uM per well. It was diluted in PBS supplemented with the soft detergent Igepal (Fluka).; type: functional, organism-based, Mus musculus; details: Tulahuen, NIH3T3
Leishmania donovani [3] = experiment: (§1) GSK_TCAKS: pIC50 Leishmania donovani Imaging: THP-1 Host Macrophages. Assay plates (384-well) were prepared by adding 250nL of compound to each well. For single shot assay, the final compound concentration was 5 uM. […] Automated image analysis was performed with a script developed on Acapella High Content Imaging and Analysis Software (PerkinElmer). Output: THP-1 cell count were reported for each well.; type: functional, organism-based, Homo sapiens
[4] = tested on: Trypanosoma brucei brucei; experiment: GSK_TCAKS: pIC50 Trypanosoma brucei viability assay using luminiscence. Assay plates (1536-well) were prepared. T. brucei cultures were harvested and counted in a CASY cell counter. A parasite suspension was prepared at a final concentration of 5 * 10^4 cells/mL in complete HMI9 medium and 6uL was dispensed to all wells containing compounds using a Multidrop Combi dispenser. 6uL of HMI9 media with 0.4% DMSO were dispensed to control columns. Plates were incubated for 24 h at 37C, 5% CO2 then tempered for 10 min at room temperature. ATP content was quantified by adding 4 uL of CellTiter-Glo Reagent (Promega) according to the manufacturer's instructions. Luminescence was measured using a ViewLux.; type: functional, organism-based; details: Lister 427, CASY
Leishmania donovani [5] = experiment: GSK_TCAKS: pIC50 Leishmania donovani viability assay using fluorescence intensity. Assay plates (1536-well) were prepared by adding 30nL per well of compound. For single shot assay, the final compound concentration was 5uM. […] Briefly, eGFP LdBOB axenic amastigotes were harvested, fixed and counted in a CASY cell counter (Roche-Applied Science). A final concentration of 1.5 * 10^5 cells per well were prepared in amastigote media containing 500 U/mL penicillin/streptomycin (Invitrogen) and 6uL was dispensed to each experimental well using a Multidrop Combi dispenser (Thermo Scientific). 6uL of assay media was dispensed to control columns used as reference for 100% compound response. Following incubation for 72 h at 37C, 5% CO2, 2 uL of resazurin was added to each well at a final concentration of 0.5 mM in phosphate buffered saline (PBS) with IGEPAL (Sigma-Aldrich), 0.05% (v/v).; type: functional, organism-based
[6] = GSK_TCAKS: pIC50 HepG2 human cell line viability assay using luminiscence. […] Seeding density was checked to ensure that new mono-layers were not more than 50% confluent at the time of harvesting. Cell suspension was added to 500 mL of the same medium at a final density of 1.2 * 10^5 cells/mL. This cell suspension was dispensed (25 uL, 3000 cells per well) into 384-well clear-bottom plates using a Multidrop Combi dispenser. Prior to addition of the cell suspension, the screening compounds (250 nL) were pre-dispensed into the plates with an Echo liquid handler. Plates were incubated for 48 h at 37C, 5% CO2. After incubation, plates equilibrated at room temperature for 30 min before proceeding to develop the luminescent signal. The signal developer, CellTiter-Glo Reagent, was allowed to equilibrate at room temperature for 30 min and added to the plates (25uL per well) using a Multidrop Combi dispenser. Plates were left for 10 min at room temperature for stabilization and then read using a ViewLux.; type: toxicity, cell-based
Trypanosoma cruzi [7] = experiment: (§2) GSK_TCAKS: pIC50 Trypanosoma cruzi Imaging: Infected Cells. […] Cells were then washed once with PBS before infection. T. cruzi trypomastigotes, collected at days 5 to 8 after infection from LLC-MK2 parasite infected cultures, were allowed to swim out for 4h at 37C from a centrifuged pellet (2,500 rpm/10 min/room temperature). Trypomastigotes were then collected and counted in a CASY Cell Counter. Trypomastigotes, in supplemented DMEM, were added to H9c2 cultures in a multiplicity of infection of 1 and incubated for 18 h. Cells were washed once with PBS before incubation of the infected H9c2 monolayer with trypsin (Life-Technologies) to detach cells from the flask. Cells were counted in a CASY Cell Counter using a 150 um capillary and their density set at 5 * 10^4 cells per mL in supplemented assay DMEM. Infected H9c2 were dispensed into 384-well poly-lysine coated assay plates at 50uL per well using a Multidrop Combi dispenser. After seeding them, the plates were incubated at 37C, 5% CO2 for 72h. Cultures were then fixed and stained by addition of 50 uL of a solution containing 8% formaldehyde and 4 uM DRAQ5 DNA dye (BioStatus, UK) per well. […] Five images were collected per well for reliable statistical analysis. Automated image analysis was performed with a script developed on Acapella High Content Imaging and Analysis Software (PerkinElmer). Output: percentage of infected cells per well as a second infection marker.; type: functional, organism-based, Rattus norvegicus; details: H9c2, 4 h
[8] = target: Sterol 14-alpha demethylase (Trypanosoma cruzi (strain CL Brener), UniProt Q7Z1V1); experiment: GSK_TCAKS: pIC50 CYP51 from Trypanosoma cruzi.; type: functional
Trypanosoma cruzi [9] = experiment: GSK_TCAKS: pIC50 Trypanosoma cruzi Imaging: Amastigotes/Cell. […] Cells were then washed once with PBS before infection. T. cruzi trypomastigotes, collected at days 5 to 8 after infection from LLC-MK2 parasite infected cultures, were allowed to swim out for 4h at 37C from a centrifuged pellet (2,500 rpm/10 min/room temperature). Trypomastigotes were then collected and counted in a CASY Cell Counter. Trypomastigotes, in supplemented DMEM, were added to H9c2 cultures in a multiplicity of infection of 1 and incubated for 18 h. Cells were washed once with PBS before incubation of the infected H9c2 monolayer with trypsin (Life-Technologies) to detach cells from the flask. Cells were counted in a CASY Cell Counter using a 150 um capillary and their density set at 5 * 10^4 cells per mL in supplemented assay DMEM. Infected H9c2 were dispensed into 384-well poly-lysine coated assay plates at 50uL per well using a Multidrop Combi dispenser. After seeding them, the plates were incubated at 37C, 5% CO2 for 72h. Cultures were then fixed and stained by addition of 50 uL of a solution containing 8% formaldehyde and 4 uM DRAQ5 DNA dye (BioStatus, UK) per well. […] Five images were collected per well for reliable statistical analysis. Automated image analysis was performed with a script developed on Acapella High Content Imaging and Analysis Software (PerkinElmer). Output: number of amastigotes per cell as infection level measurement.; type: functional, organism-based, Rattus norvegicus; details: H9c2, 4 h
Trypanosoma cruzi [10] = experiment: as §2, with “H2C9” for “Trypanosoma cruzi”, “H9c2 Host Cardiomyocytes.” for “Infected Cells.”, “Number” for “percentage”, “H9c2 Host Cardiomyocytes nuclei to determine drug-related cytotoxicity.” for “infected cells per well as a second infection marker.”; type: functional, organism-based, Rattus norvegicus; details: H9c2, 4 h
Leishmania donovani [11] = experiment: as §1, with “Infected” for “THP-1 Host”, “Percent of infected macrophage cells” for “THP-1 cell count”; type: functional, organism-based, Homo sapiens; details: THP-1
Leishmania donovani [12] = experiment: as §1, with “Amastigotes/Macrophages.” for “THP-1 Host Macrophages.”, “Average number of amastigotes per macrophage” for “THP-1”, “cell” for “cell count”; type: functional, organism-based, Homo sapiens; details: THP-1

Sterol 14-alpha demethylase, sequence (Q7Z1V1 whole entry): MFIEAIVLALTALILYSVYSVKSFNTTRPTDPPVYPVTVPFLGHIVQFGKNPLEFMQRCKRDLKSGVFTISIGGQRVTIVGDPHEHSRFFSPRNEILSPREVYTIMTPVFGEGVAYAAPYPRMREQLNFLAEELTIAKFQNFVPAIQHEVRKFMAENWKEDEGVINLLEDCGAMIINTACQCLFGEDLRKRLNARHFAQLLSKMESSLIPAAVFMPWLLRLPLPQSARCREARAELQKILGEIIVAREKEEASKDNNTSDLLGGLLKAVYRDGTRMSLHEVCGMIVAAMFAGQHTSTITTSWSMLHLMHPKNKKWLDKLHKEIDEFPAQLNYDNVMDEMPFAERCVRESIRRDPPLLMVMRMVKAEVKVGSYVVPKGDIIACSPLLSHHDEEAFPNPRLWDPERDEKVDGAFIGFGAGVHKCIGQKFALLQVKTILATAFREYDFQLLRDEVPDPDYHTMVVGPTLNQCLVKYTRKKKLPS

| SMILES | IC50 [1] [µM] | IC50 (Trypanosoma cruzi [2]) [µM] | IC50 (Leishmania donovani [3]) [µM] | IC50 [4] [µM] | IC50 (Leishmania donovani [5]) [µM] | IC50 at 48 h [6] [µM] | IC50 (Trypanosoma cruzi [7]) [µM] | IC50 [8] [µM] | IC50 (Trypanosoma cruzi [9]) [µM] | IC50 (Trypanosoma cruzi [10]) [µM] | IC50 (Leishmania donovani [11]) [µM] | IC50 (Leishmania donovani [12]) [µM] |
| --- | --- | --- | --- | --- | --- | --- | --- | --- | --- | --- | --- | --- |
| Cn1ccnc1CN1CCc2[nH]cnc2C1c1ccccc1OCc1ccccc1 (stereo not drawn) | 0.398 | 39.8 | > 50.1 | 0.501 | > 50.1 | > 100 | > 50.1 | 7.94 | > 50.1 | > 50.1 | > 50.1 | > 50.1 |
| CCCCCNC(=O)c1c[nH]c2ccc(S(=O)(=O)N(C)c3ccc(OCC)cc3)cc2c1=O | 0.316 | 31.6 | > 50.1 | 0.251 | > 50.1 | > 100 | > 50.1 | 1.58 | > 50.1 | > 50.1 | > 50.1 | > 50.1 |
| O=c1nc(NCCCNCc2cc(Br)cc(Br)c2)[nH]c2ccsc12 | 0.1 | 0.631 | 15.8 | 0.1 | 15.8 | 50.1 | 0.631 | 31.6 | 0.398 | 25.1 | 5.01 | 2.51 |
| Cc1cc(NC(=O)C2CCCCC2)n(-c2nc3c(c(=O)[nH]2)CCC3)n1 | 0.126 | 0.316 | 10 | 0.158 | 0.0398 | 50.1 | 0.501 | > 100 | 0.158 | 2 | 5.01 | 3.16 |
| CCOc1ccc(Nc2ccc(S(=O)(=O)N3CCN(C)CC3)cc2[N+](=O)[O-])cc1OCC | 6.31 | 7.94 | 12.6 | 31.6 | 0.794 | > 100 | > 50.1 | 31.6 | 3.16 | > 50.1 | 7.94 | 5.01 |
| COc1cc(OC)cc(C(=O)N[C@@H](CC(C)C)C(=O)NC2(C#N)CC2)c1 | 0.501 | > 50.1 | > 50.1 | 0.0631 | > 50.1 | > 100 | > 50.1 | > 100 | > 50.1 | > 50.1 | > 50.1 | > 50.1 |
| COc1cnc2ccc(=O)n(CCN3CCC(NC(=O)c4ccc(Cl)cc4)CC3)c2c1 | 0.0794 | 0.126 | > 50.1 | 0.1 | 2 | > 100 | 0.251 | 10 | 0.0794 | 0.631 | > 50.1 | 3.98 |
| CCCNC(=O)Nc1cccc(-c2nc3ncccc3o2)c1 | 0.501 | 2.82 | 20 | 1 | 3.16 | > 100 | 3.98 | > 100 | 3.16 | 25.1 | 12.6 | 15.8 |
| COc1ccc(CNc2nsc3ccccc23)cc1OC | 7.94 | 6.31 | 25.1 | 6.31 | 3.16 | 50.1 | 25.1 | 12.6 | 20 | > 50.1 | 6.31 | 5.01 |
